Like-named read-outs stand apart in the source and are kept apart here.
What was measured:
5-HT1A receptor = 5-HT1A receptor (Homo sapiens (Human), UniProt P08908); assay: FLIPR Ca2+ flux functional assay at 5-HT1A (CHO cells); conditions: for 5-HT1A % Act @ Max Conc.: at max concentration
5-HT2A receptor [1] = target: T1, 5-HT2A receptor (Homo sapiens (Human), UniProt P28223); assay: FLIPR Ca2+ flux functional assay at 5-HT2A (HEK293); conditions: for 5-HT2A % Act @ Max Conc.: HEK293, at max concentration
human 5-HT2C receptor = human 5-HT2C receptor (Homo sapiens (Human), UniProt P28335); assay: FLIPR Ca2+ flux functional assay at 5-HT2C (Eurofins DiscoverX); assay type: cell-based; conditions: Ca2+ flux, human 5-HT2C; for 5-HT2C % Act @ Max Conc.: at max concentration; for EC50: read-out: 5-HT2C EC50
human 5-HT2C receptor, sequence (P28335 whole entry, looked up): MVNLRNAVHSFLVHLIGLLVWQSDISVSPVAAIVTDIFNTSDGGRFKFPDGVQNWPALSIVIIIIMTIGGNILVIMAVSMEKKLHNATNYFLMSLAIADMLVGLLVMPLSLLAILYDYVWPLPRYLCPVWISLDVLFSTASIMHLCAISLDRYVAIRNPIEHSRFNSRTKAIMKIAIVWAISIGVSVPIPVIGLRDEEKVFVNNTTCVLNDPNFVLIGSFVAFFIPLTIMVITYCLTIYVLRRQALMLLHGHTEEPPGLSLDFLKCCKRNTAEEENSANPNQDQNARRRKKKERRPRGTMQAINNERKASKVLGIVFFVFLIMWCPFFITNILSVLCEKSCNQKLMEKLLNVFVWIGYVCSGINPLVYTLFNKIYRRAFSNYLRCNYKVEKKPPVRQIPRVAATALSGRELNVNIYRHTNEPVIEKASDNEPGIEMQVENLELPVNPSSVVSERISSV
Protocol: Functional Assays at 5-HT2C Receptors. […] Probenecid was prepared fresh. Cells were loaded with dye prior to testing and incubated at 37° C. for 30-60 minutes. After dye loading, cells were removed from the incubator and 10 μL HBSS/20 mM Hepes was added. 3× vehicle was included in the assay buffer. Cells were incubated for 30 mins at room temperature in the dark to equilibrate plate temperature. Intermediate dilution of sample stocks was performed to generate 4× sample in assay buffer. Compound agonist activity was measured on a FLIPR Tetra (MDS). Calcium mobilization was monitored for 2 minutes and 10 μL 4× sample in HBSS/20 mM Hepes was added to the cells 5 seconds into the assay.

5-HT2A receptor [2] = target: T1, 5-HT2A receptor; assay: 5-HT2A receptor radioligand binding with [3H]ketanserin
5-HT2B receptor = 5-HT2B receptor (Homo sapiens (Human), UniProt P41595); assay: FLIPR Ca2+ flux functional assay at 5-HT2B (HEK293); conditions: for 5-HT2B % Act @ Max Conc.: HEK293, at max concentration
5-HT2B receptor, sequence (P41595 whole entry, looked up): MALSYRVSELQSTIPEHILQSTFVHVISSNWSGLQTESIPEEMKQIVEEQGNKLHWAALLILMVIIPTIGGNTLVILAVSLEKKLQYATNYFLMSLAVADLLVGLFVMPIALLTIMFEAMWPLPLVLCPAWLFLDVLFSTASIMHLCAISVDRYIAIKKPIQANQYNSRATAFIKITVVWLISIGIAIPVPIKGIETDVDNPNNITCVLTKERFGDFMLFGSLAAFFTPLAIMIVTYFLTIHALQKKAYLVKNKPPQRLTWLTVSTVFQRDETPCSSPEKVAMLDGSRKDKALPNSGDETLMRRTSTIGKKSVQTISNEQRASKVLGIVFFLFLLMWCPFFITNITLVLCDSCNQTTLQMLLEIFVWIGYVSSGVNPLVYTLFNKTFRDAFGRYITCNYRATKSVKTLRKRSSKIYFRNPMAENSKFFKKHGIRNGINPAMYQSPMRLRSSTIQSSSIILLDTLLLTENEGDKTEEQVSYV

C57BL/6 mice = assay: Automated (video tracking) head twitch response (HTR) assay in mice; assay type: in vivo; conditions: SC; for ED50: Mus musculus, 20 min, 20 min recording, read-out: ED50; for Most Efficacious Dose; mg/kg: dose giving the most HTR
Protocol: Disclosed compounds were tested for their ability to induce a head twitch response (HTR) in mice using an automated video tracking procedure, with the results summarized in Table 5. […] The phenyl Compound 44 was substantially more efficacious at inducing HTR than its pyridine counterpart Compound 29, in agreement with the generally lower maximal efficacy of the disclosed pyridine compounds for signaling through 5-HT2A receptors.
Animals. Adult male C57BL/6 mice aged 8-10 weeks (body weight 20-25 g) were used in these experiments. Animals were housed under controlled temperatures and 12-hour light/dark cycles (lights on between 07:00-19:00 h), with ad libitum food and water. The protocol was approved by the Institutional Animal Care and Use Committee at the study site. This study was carried out in strict accordance with the recommendations in the Guide for the Care and Use of Laboratory Animals of the National Institutes of Health. All efforts were made to minimize suffering.
Drugs and Drug Administration. […] was commercially obtained. Disclosed compounds were synthesized as described above. They were administered subcutaneously (SC) dissolved in saline (or saline acidified with 1-2 molar equivalents HCl to form the salt in situ for freebase compounds) at a volume of 10 mL/kg. Five doses were tested, with N=5-8 animals/group. Doses were calculated on the basis of the freebase, except for DOI, which was calculated based on the HCl salt.
Procedure. Mice were administered one dose of the drug and immediately placed into a small open field for behavioral observation. High-speed video of animals' behavior was captured continuously for 20 min. Video recordings were imported into an image processing software, which detects multiple points of interest on each animal's body, including the left and right ear. HTR events were defined as periodic deviations of ear locations from temporally averaged ear locations. Predefined thresholds for magnitude and frequency of location deviations were used to filter […] events from random head movements. The method was validated by comparing detected events with manual (human) observations and found to have an accuracy >95%. The total number of HTR events counted during the 20-min recording were determined for each animal at each dose.
Statistical Analysis. Analysis was performed using GraphPad Prism 9. Dose-response curves were fit via non-linear regression using the Gaussian 2020 function in Prism in order to determine the ED50 and Emax for each compound.

[3] = read-out: 5-HT1A EC50, Ca2+ flux, CHO cells
[4] = read-out: 5-HT2A EC50, Ca2+ flux, HEK293
[5] = read-out: Ki at 5-HT2A Receptor (nM) ([3H]ketanserin), HEK293 stable cell line, 1 nM [3H]ketanserin, 1 h, 25 °C
[6] = read-out: 5-HT2B EC50, Ca2+ flux, HEK293

| SMILES | 5-HT1A % Act @ Max Conc. (5-HT1A receptor; Ca2+ flux, CHO cells) | EC50 (5-HT1A receptor; [3]) | 5-HT2A % Act @ Max Conc. (5-HT2A receptor [1]; Ca2+ flux) | EC50 (5-HT2A receptor [1]; [4]) | 5-HT2C % Act @ Max Conc. (human 5-HT2C receptor) | EC50 (human 5-HT2C receptor) | Ki (5-HT2A receptor [2]; [5]) | 5-HT2B % Act @ Max Conc. (5-HT2B receptor; Ca2+ flux) | EC50 (5-HT2B receptor; [6]) | EC50 (5-HT1A receptor) | EC50 (5-HT2A receptor [1]) | EC50 (5-HT2B receptor) | ED50 (C57BL/6 mice) | Emax (HTR counts/20 min) (C57BL/6 mice) | # HTR/20 min at Most Efficacious Dose (C57BL/6 mice) | Most Efficacious Dose; mg/kg (C57BL/6 mice) | Ki (5-HT2A receptor [2]) |
| --- | --- | --- | --- | --- | --- | --- | --- | --- | --- | --- | --- | --- | --- | --- | --- | --- | --- |
| COc1cc(C(F)(F)F)c(OC)cc1CCN [Compound 2C-TFM, 2C-TFM, reference compound] | −0.647% | > 10000 nM | 81.5% | 1.05 nM | 88.2% | 0.593 nM | 15.8 nM | 82.0% | 16.3 nM | – | – | – | – | – | – | – | – |
| CCCCCc1cc(OC)c(CC(C)N)nc1OC (centres unmarked) [Compound 4, 1-(3,6-dimethoxy-5-pentylpyridin-2-yl)propan-2-amine] | 67.31% | – | 132.71% | – | – | – | 26.2 nM | 14.53% | – | 48100 nM | 15.4 nM | > 10000 nM | – | – | – | – | – |
| CCCCCc1cc(OC)c(CCN)nc1OC [Compound 7, 2-(3,6-dimethoxy-5-pentylpyridin-2-yl)ethan-1-amine] | 61.95% | – | 82.88% | – | 92.53% | 16.2 nM | 6.32 nM | 11.56% | – | 51900 nM | 20 nM | > 10000 nM | 4.88 mg/kg | 24.61 HTR counts/20 min | 23.25 HTR/20 min | (1) mg/kg | – |
| COc1cc(Cl)c(OC)nc1CCN [Compound 16, 2-(5-chloro-3,6-dimethoxypyridin-2-yl)ethan-1-amine] | 5.31% | – | 97.33% | – | – | – | 264 nM | 38.95% | – | > 100000 nM | 20.1 nM | 1400 nM | – | – | – | – | – |
| COc1cc(Cl)c(OC)nc1CC(C)N (centres unmarked) [Compound 17, 1-(5-chloro-3,6-dimethoxypyridin-2-yl)propan-2-amine] | 0.79% | – | 99.4% | – | – | – | 404 nM | 70.03% | – | > 100000 nM | 6.27 nM | 540 nM | – | – | – | – | – |
| CCc1cc(OC)c(CCN)nc1OC [Compound 19, 2-(5-ethyl-3,6-dimethoxypyridin-2-yl)ethan-1-amine] | 1.25% | – | 96.03% | – | – | – | 111 nM | 20.07% | – | 12000 nM | 20.3 nM | 218 nM | – | – | – | – | – |
| CCc1cc(OC)c(CC(C)N)nc1OC (centres unmarked) [Compound 20, 1-(5-ethyl-3,6-dimethoxypyridin-2-yl)propan-2-amine] | 0.9% | – | 98.11% | – | – | – | 322 nM | 75.75% | – | > 100000 nM | 5.79 nM | 293 nM | – | – | – | – | – |
| COc1ccccc1CNCCc1nc(OC)c(Br)cc1OC [Compound 25, 2-(5-bromo-3,6-dimethoxypyridin-2-yl)-N-(2-methoxybenzyl)ethan-1-amine] | 21.35% | – | 93.57% | – | – | – | 0.35 nM | 8.22% | – | > 100000 nM | 1.59 nM | > 10000 nM | – | – | – | – | – |
| COc1cc(CCNCc2ccccc2OC)c(OC)cc1C [Compound 25D-NBOMe, 25D-NBOMe, reference compound] | −4.43% | > 10000 nM | 97.5% | 0.251 nM | 91.5% | < 0.508 nM | 2.52 nM | 43.3% | 1.27 nM | – | – | – | – | – | – | – | – |
| COc1cc(C2CC2)c(OC)nc1CC(C)N (centres unmarked) [Compound 27, 1-(5-cyclopropyl-3,6-dimethoxypyridin-2-yl)propan-2-amine] | 0.49% | – | 104.13% | – | – | – | 304 nM | 61.18% | – | > 100000 nM | 15 nM | 246 nM | – | – | – | – | – |
| COc1cc(CCCCCC(F)(F)F)c(OC)nc1CCN [Compound 30, 2-(3,6-dimethoxy-5-(6,6,6-trifluorohexyl)pyridin-2-yl)ethan-1-amine] | 55.61% | – | 73.21% | – | – | – | 6.01 nM | 23.14% | – | 91600 nM | 65 nM | 1670 nM | 5.87 mg/kg | 16.80 HTR counts/20 min | 17.5 HTR/20 min | (3.2) mg/kg | – |
| CCCCc1cc(OC)c(CCN)nc1OC [Compound 31, 2-(5-butyl-3,6-dimethoxypyridin-2-yl)ethan-1-amine] | 21.32% | – | 90.63% | – | – | – | 19.7 nM | 7.29% | – | > 100000 nM | 7.88 nM | > 10000 nM | 1.29 mg/kg | 43.42 HTR counts/20 min | 43.38 HTR/20 min | (3.2) mg/kg | – |
| COc1cc(CCCCF)c(OC)nc1CCN [Compound 32, 2-(5-(4-fluorobutyl)-3,6-dimethoxypyridin-2-yl)ethan-1-amine] | 0.5% | – | 81.86% | – | 99.77% | 22.8 nM | 103 nM | −0.69% | – | > 100000 nM | 20.8 nM | > 10000 nM | – | – | – | – | – |
| COc1cc(CCCC(F)(F)F)c(OC)nc1CCN [Compound 33, 2-(3,6-dimethoxy-5-(4,4,4-trifluorobutyl)pyridin-2-yl)ethan-1-amine] | 10.46% | – | 68.5% | – | – | – | 104 nM | 1.05% | – | > 100000 nM | 45.7 nM | > 10000 nM | – | – | – | – | – |
| COc1cc(CCCCCF)c(OC)nc1CCN [Compound 34, 2-(5-(5-fluoropentyl)-3,6-dimethoxypyridin-2-yl)ethan-1-amine] | 4.8% | – | 64.66% | – | – | – | 10.2 nM | 7.93% | – | > 100000 nM | 13.5 nM | > 10000 nM | – | – | – | – | – |
| COc1cc(CCCCC(F)(F)F)c(OC)nc1CCN [Compound 35, 2-(3,6-dimethoxy-5-(5,5,5-trifluoropentyl)pyridin-2-yl)ethan-1-amine] | 41.47% | – | 48.95% | – | – | – | – | 32.44% | – | > 100000 nM | 38.5 nM | 341 nM | – | – | – | – | 13.6 nM |
| CCCc1cc(OC)c(CCN)nc1OC [Compound 36, 2-(3,6-dimethoxy-5-propylpyridin-2-yl)ethan-1-amine] | 3.03% | – | 88.19% | – | – | – | 35.4 nM | 21.53% | – | > 100000 nM | 4.14 nM | 184 nM | 0.972 mg/kg | 48.79 HTR counts/20 min | 48.12 HTR/20 min | (10) mg/kg | – |
| CCCCCCc1cc(OC)c(CC(C)N)nc1OC (centres unmarked) [Compound 38, 1-(5-hexyl-3,6-dimethoxypyridin-2-yl)propan-2-amine] | 123.88% | – | 83.97% | – | 79.49% | 159 nM | 3.1 nM | 4.76% | – | 56900 nM | 11.4 nM | > 10000 nM | – | – | – | – | – |
